The results in this text go back to paper PMC7381740 (Theranostics, 2020).

Values joined by “and” are separate entries in the source; they are usually repeats but may differ in a detail not shown here. Identical values can stand only once.

For assay [1], the target named is T1, S1R (Homo sapiens, UniProt Q99720).
T1 construct: Post-mortem brain tissues of 23 cases (8 men and 15 women) were obtained from the Manchester Brain Bank; from tissue; host or cells: post-mortem human frontal and temporal cortex (Manchester Brain Bank)
T1 sequence (Q99720 whole entry): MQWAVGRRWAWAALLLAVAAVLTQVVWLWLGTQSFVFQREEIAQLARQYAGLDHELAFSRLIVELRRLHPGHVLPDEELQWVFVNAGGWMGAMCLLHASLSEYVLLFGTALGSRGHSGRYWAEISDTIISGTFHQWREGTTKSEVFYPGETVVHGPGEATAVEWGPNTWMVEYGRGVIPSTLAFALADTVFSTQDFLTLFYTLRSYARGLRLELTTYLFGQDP
Description: Autoradiography in post-mortem human cortex (controls, subclinical AD, AD). The format is binding. The text has this:
Post-mortem brain tissues of 23 cases (8 men and 15 women) were obtained from the Manchester Brain Bank through appropriate consenting procedures for collection and use of the human brain tissues. Pathological diagnoses were made by an experienced neuropathologist (DM) as previously described, [48] and were in accordance with recent National Institute on Ageing - Alzheimer's Association guidelines for the neuropathological assessment of AD [49]. By such classification, only cases with Braak stages 5 and 6 were classed as definite AD. Cases with Braak Stages >2 & ≤4 were not diagnosed as definite AD, but these could be considered as cases of possible (incipient) AD, thereby representing cases with early changes of AD. Amyloid plaque load per se was not employed for classification of AD, although it is acknowledged that neuritic plaque scores do form the basis of CERAD classification. Clearly, in terms of amyloid plaques alone, there was overlap in amyloid load between cases at Braak stage >2 & ≤4 and those at Braak stages 5 and 6. Subjects were therefore split in three groups based on their Braak stages: controls (Braak ≤2, 8 subjects), subclinical AD (Braak >2 & ≤4, 8 subjects) and AD (Braak >4, 7 subjects). Details of each case are described in Table 1. […] These were obtained from aged patients with no history of neurological disease and no pathological evidence of AD or other degenerative brain disease. […] The average post-mortem delay was also similar for all groups (mean ± SD [min.-max.]: 34.9 ± 11.3 [12]-[46]; 35.8 ± 9.9 [25]-[48] and 41.5 ± 14.2 [24]-[64] hours for controls, subclinical AD and AD groups, respectively). Subsequently to the autoradiography experiments, measurements from frontal cortex of case #3 were not included as the sections had been damaged during the experiments (Table 1).
(§1) Sections of frontal (Brodmann areas 8/9) and temporal cortex (Brodmann areas 21/22) were cut from frozen human tissue blocks. Human and rodents sections were mounted on to glass slides (SuperFrost Plus Gold and SuperFrost Plus slides, Thermo Fisher Scientific Inc., MA, USA for human and animal tissues, respectively). For all steps described below, Tris buffer (Trizma pre-set crystals (Sigma, UK), 50 mM, with 120 mM NaCl, with pH adjusted to 7.4 at 4 °C or room temperature) was used. Slides were allowed to defrost then pre-incubated in Tris Buffer at 4 °C for 5min. […] Adjacent sections were incubated with the same solution containing an excess of unlabelled IAM6067 (2 µM) to assess non-specific binding. Next the slides were washed 2 × 2 min in Tris buffer at 4 °C, followed by a quick rinsing in distilled water at 4 °C. Slides were then dried promptly before exposition on Phosphor-Imager plates overnight. Autoradiographs were analysed using AIDA software (Raytest GmbH, Germany). […] Specific binding (total binding minus non-specific binding) in each ROI is expressed as intensity of the photostimulated luminescence (PSL) per pixel.
Specific binding for human autoradiography across the three groups in both frontal and temporal cortex and for grey and white matter was analysed by mixed-model fitting (brain structures as repeated factor). As this analysis only returned an effect for the brain structures factor and not for the Braak stage, a Sidak's post-hoc test comparing brain regions only was performed.

In assay [2] the target is T2, S1R (Mus musculus, UniProt O55242).
T2 construct: using 20µm fresh frozen brain sections from 6 naïve and 3 AMPA-injected Wistar rats, 6 C57Bl6 mice; from tissue; host or cells: fresh frozen brain sections of 6-OHDA-lesioned C57Bl6 mice
T2 sequence (O55242 whole entry): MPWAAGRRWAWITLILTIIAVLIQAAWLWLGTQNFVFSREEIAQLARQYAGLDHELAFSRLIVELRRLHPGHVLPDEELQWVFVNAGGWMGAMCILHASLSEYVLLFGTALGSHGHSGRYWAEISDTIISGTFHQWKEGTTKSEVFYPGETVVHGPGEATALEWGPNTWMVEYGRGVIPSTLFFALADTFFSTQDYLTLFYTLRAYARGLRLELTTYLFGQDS
Kind of assay: Autoradiography in 6-OHDA Parkinson's disease mouse model. Particulars: 6-OHDA mouse. It is filed as binding. The procedure:
C57Bl6 mice were bred in the animal facility of the European Institute for Molecular Imaging (University of Muenster). Animal experiments were performed in accordance with the German laws for animal protection and were approved by the local bureau for animal care (LANUV, Landesamt für Natur, Umwelt und Verbraucherschutz Nordrhein-Westfalen). For stereotactic injections, mice (n = 6) were anaesthetised (ketamine/xylazine i.p.) and placed into a stereotactic frame. A small skin incision followed by craniotomy was performed. The needle was placed in position (coordinates: AP: +0.5 mm; ML: -2.0 mm; DV: -3.0 mm) and after 1 min, 2 µL of 5 mg/mL 6-hydroxydopamine (6-OHDA) in 0.9% NaCl and 0.02% ascorbic acid were injected into the left striatum using a 5 µL Hamilton 7005KH syringe. The syringe was kept in place for 5 min in order to allow the solution to diffuse into the surrounding tissue and was then retracted slowly.
as §1

Assay [3] addresses T3, S1R (Rattus norvegicus, UniProt Q9R0C9). Description: PET in AMPA excitotoxic lesion model. The format is in vivo. The procedure: Animals were maintained normothermic (body temperature: 37.0 ± 0.4 °C) during the surgery through the use of a heating blanket (Homeothermic Blanket Control Unit, Harvard Apparatus Limited®, Edenbridge, Kent, UK). Twenty-four hours later, the rats were anesthetized again as described above and scanned with a 3T cryogen-free MRS 3000 scanner with a quadrature, rat head coil (MR Solutions, Guildford, UK), [35] to assess oedema (i.e. lesion size and location) immediately before the PET scan. Parameters for the T2-weighted RARE sequence were: repetition time = 4800 ms, base echo time = 17 ms, effective echo time = 68 ms, number of echoes = 8, bandwidth = 20 kHz, number of samples = 256, number of views = 240, number of averages = 1 with 25 slices of 1.06 mm, giving a final voxel size of 0.136 × 0.136 × 1.06 mm.
PET data were expressed as SUV.
As the experiments with CM398 were performed later, scans without and with pre-treatment with CM398 were performed in the same animals and therefore were analysed using 2 way ANOVA with repeated measures for ROI and treatment. ANOVA were followed by a Sidak's post-hoc test.

Assay [4] concerns the target T3, S1R. Kind of assay: In vitro autoradiography, naive rat brain sections. The format is binding. The following applies: 2 nM tracer. The procedure:
as §1

T3 sequence (Q9R0C9 whole entry): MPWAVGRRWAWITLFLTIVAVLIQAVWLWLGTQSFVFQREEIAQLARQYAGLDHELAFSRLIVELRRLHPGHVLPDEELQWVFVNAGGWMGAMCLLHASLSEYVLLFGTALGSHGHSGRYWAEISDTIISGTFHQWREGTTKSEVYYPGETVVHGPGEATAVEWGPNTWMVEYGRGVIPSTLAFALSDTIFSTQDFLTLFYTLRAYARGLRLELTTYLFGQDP

Take `FCCOc1ccc(CN2CCN(Cc3cc4ccccc4o3)CC2)cc1` [^18F-IAM6067, N-(2-Benzofuranylmethyl)-N'-[4-(2-fluoroethoxy)benzyl]piperazine]: the specific binding in assay [1] (human frontal grey matter, AD (Braak >4)) is listed as 3.27 ± 0.90 PSL/pixel; in assay [1] (human frontal grey matter, controls (Braak ≤2)), 2.37 ± 1.09 PSL/pixel; in assay [1] (human frontal grey matter, subclinical AD (Braak >2 & ≤4)) it was 3.11 ± 0.84 PSL/pixel; in assay [1] (human temporal grey matter, AD (Braak >4)), 2.91 ± 1.20 PSL/pixel; in assay [1] (human temporal grey matter, controls (Braak ≤2)), 2.56 ± 1.24 PSL/pixel; in assay [1] (human temporal grey matter, subclinical AD (Braak >2 & ≤4)) it was 2.98 ± 1.15 PSL/pixel. The specific binding stood at 4.29 ± 0.84 PSL/pixel in assay [2] (cingulate cortex, contralateral); 4.21 ± 0.87 PSL/pixel in assay [2] (cingulate cortex, ipsilateral); 3.30 ± 0.55 PSL/pixel in assay [2] (striatum, contralateral); 3.39 ± 0.49 PSL/pixel in assay [2] (striatum, ipsilateral); 3.22 ± 0.65 PSL/pixel in assay [2] (thalamus medio-dorsal, contralateral); 3.25 ± 0.64 PSL/pixel in assay [2] (thalamus medio-dorsal, ipsilateral). Moreover, the specific binding was found to be 3.92 ± 1.08 PSL/pixel in assay [2] (ventral tegmental area/substantia nigra, contralateral); 3.82 ± 1.25 PSL/pixel in assay [2] (ventral tegmental area/substantia nigra, ipsilateral); 4.96 ± 0.26 PSL/pixel in assay [4] (cingulate cortex); 6.79 ± 0.95 PSL/pixel in assay [4] (hypothalamus); 7.24 ± 0.89 PSL/pixel in assay [4] (pons); 4.49 ± 0.51 PSL/pixel in assay [4] (somatosensory cortex). In addition, the specific binding in assay [4] (striatum) was 4.56 ± 0.42 PSL/pixel. The “^18F-IAM6067 uptake, AMPA-lesioned vs control rats (in words)” value in assay [3] (ipsi- and contralateral substantia nigra and pons-raphe) was “significant increase”. Moreover, the “change in ^18F-IAM6067 uptake (PET)” value in assay [3] (lesioned caudate-putamen, 24 h after intrastriatal AMPA 7.5 nmol) was -16% and -16 ± 11%.
